Laboratory results published in patent publication US12180084B2, “Cerium (III) carbonate formulations” (THE REGENTS OF THE UNIVERSITY OF CALIFORNIA, priority 2019, dated 2024).

Experiments:
[1] = CR dye photodegradation in TiO2-based sunscreen film (Neutrogena Broad Spectrum Mineral Sunscreen SPF 60+)
Method: Films on filter paper were fabricated and photoreactor experiments were conducted exactly the same way as described in Example 7.3, using CR dye, except UV irradiation in the photoreactor was conducted for a period of 4 h. These films contained either no UV-protecting agent, 3.0 wt. % of Ce2(CO3)3·6H2O that was synthesized according to Example 3, 3.0 wt. % of commercial Ce2(CO3)3·xH2O (Acros Organics), or 3.0 wt. % of ZnO (NANOBYK-3840). […] Upon adding 3 wt. % of Ce2(CO3)3·6H2O synthesized according to Example 3 to the sunscreen formulation, a decrease in the amount of CR dye photodegradation to 15±1% is observed. […] When cerium carbonate consisting of Ce2(CO3)3·xH2O from Acros Organics is instead used in place of Ce2(CO3)3·6H2O synthesized according to Example 3, photoprotection with 24±2% CR dye photodegradation is observed. The properties of Ce2(CO3)3·xH2O from Acros Organics have been ascribed in Example 4, and these aspects are borne out in conjunction with sunscreen-based formulations here as well. When instead of cerium carbonate ZnO (NANOBYK-3840) is used as a UV-protecting agent, less effect on CR dye photodegradation is observed. This is a similar outcome to observations with MB dye and ZnO-based sunscreen formulation in Example 7.2.
The amount of Ce2(CO3)3·6H2O synthesized according to Example 3 that was incorporated into the TiO2-based sunscreen was increased to 5.0 wt. %, and results are shown in FIGS. 23A-23B and are summarized in Table 4. […] There is a slight diminishing return for adding Ce2(CO3)3·6H2O both here and in Example 7.2, but the effect of increasing Ce2(CO3)3·6H2O on organic-molecule photoprotection is much more pronounced than in the case of ZnO.

RBL-2H3 rat-cell line = assay: Toxicity of mammalian cells to cerium carbonate, microscopy imaging; format: cell-based; conditions: 10 microliter of 1 mg in 1 mL water dispersion, imaging 20 min after addition
Method: A RBL-2H3 rat-cell line was used from the Berkeley cell-culture facility. […] Prior to microscopy imaging, cells were stored under 5% CO2 in air atmosphere at 37° C. A 10 microliter aliquot of an aqueous dispersion comprising 1 mg of cerium carbonate Ce2(CO3)3·6H2O (micron sized) in 1 mL of deionized water was added to the RBL-2H3 cells in the Petri dish. Microscopy imaging of the cells was performed before and 20 min after addition of the cerium carbonate. […] This viability of the cells appears to be similar both before and after treatment with cerium carbonate Ce2(CO3)3·6H2O (micron sized).

O.O.O.O.O.O.O=C([O-])[O-].O=C([O-])[O-].O=C([O-])[O-].[Ce+3].[Ce+3] [Ce2(CO3)3·6H2O]
% of CR dye photodegradation after 4 h of UV irradiation in photoreactor ([1]; 3.0 wt. % added agent relative to sunscreen weight, listed as Ce2(CO3)3·6H2O synthesized according to Example 3): 15±1% | % of CR dye photodegradation after 4 h of UV irradiation in photoreactor ([1]; 3.0 wt. % added agent relative to sunscreen weight, listed as Ce2(CO3)3•6H2O synthesized according to Example 3): 15 ± 1% | % of CR dye photodegradation after 4 h of UV irradiation in photoreactor ([1]; 5.0 wt. % added agent relative to sunscreen weight): 10 ± 1% | toxicity to cells (cell shape, viability) (RBL-2H3 rat-cell line): generally non-toxic to the cells
